These results are taken from PubChem BioAssay (NCI).

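Test compounds were applied to cells in 96-well plates for 48 hours at 5 doses. The concentration for 50% growth inhibition is given as GI50. At the TGI there is no net growth.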

What all share (test): NCI tumour cell line growth inhibition, 48 h
The subject of experiment [1] is HCT-116 colon.
Experiment [2] concerns OVCAR-4 ovarian.
The test system of experiment [3] is MALME-3M melanoma.
The test system of experiment [4] is EKVX NSCLC.
In experiment [5] the test system is SK-OV-3 ovarian.
Experiment [6] has as its system TK-10 renal.
For experiment [7], the system named is LOX IMVI melanoma.
For experiment [8], the system named is SR leukemia.
Experiment [9] concerns RPMI-8226 leukemia.

Regarding `CC(C)(C)c1ccc2c(c1)S(=O)(=O)Nc1ccc(Cl)cc1NS(=O)(=O)c1cc(C(C)(C)C)ccc1OCCOCCOCCO2`, the TGI in [1] is more than 100 µM; in experiment [2] it was 28 µM; in experiment [3], 80 µM; in experiment [4], more than 100 µM; in [5] it was 86.3 µM; in [6] it was more than 100 µM. In addition, the TGI in experiment [7] is more than 100 µM.
Regarding `Cc1ccc(C)c(N2C/C(=N\NC(=O)CC#N)C(c3nc4ccccc4s3)C(=O)C2=O)c1` (stereo unspecified), the TGI in experiment [1], in experiment [2], in experiment [3], in experiment [4], in [5] and in experiment [6] was more than 100 µM each time. Also, in experiment [8], the TGI is more than 100 µM.
Regarding `COc1cccc(/C=N/[N-]C(=O)c2ccncc2)c1[O-].COc1cccc(/C=N/[N-]C(=O)c2ccncc2)c1[O-].[O]=[U](=[O])([OH2+])[OH2+]`, the GI50 in [1] was 4.8 µM; in experiment [2], more than 34.2 µM; in experiment [3], 12.8 µM; in [4], 2.86 µM; in experiment [5], 12.2 µM; in [6] it was 13.1 µM. Also, the GI50 is 3.37 µM in experiment [8], 4.94 µM in experiment [7] and 4.4 µM in [9]. For the same compound, the TGI in experiment [1] was more than 100 µM; in experiment [2], more than 100 µM; in experiment [3], more than 66.3 µM; in [4], more than 100 µM; in experiment [5], 73.2 µM; in experiment [6], more than 31.6 µM. Besides, the TGI was more than 100 µM in experiment [8], more than 100 µM in [7] and 48 µM in experiment [9].
In the case of `CCN1c2ccccc2-c2c3c1cc(C)cc3c1ccccc1[n+]2CC`, the TGI in experiment [1] is 3.89 µM; in experiment [2], 5.57 µM; in [3], 7.73 µM; in experiment [5], 5.68 µM; in experiment [6], 9.66 µM; in experiment [8] it was 5.21 µM. The results for the TGI in experiment [7] and in experiment [9] were 1.89 µM and 2.92 µM, respectively.
Consider `Nc1ccccc1C(=O)/C=C/c1c(O)ccc2ccccc12`, for which the TGI in experiment [1], in [2], in experiment [3], in experiment [4], in [5] and in experiment [6] was more than 100 µM each time. In addition, the TGI is more than 100 µM in [8], 44.9 µM in [7] and more than 100 µM in experiment [9].
Turning to `Cc1[nH]c2ccccc2c1C1Cc2ccccc2N1C(=O)C#Cc1ccc([N+](=O)[O-])cc1` (stereo unspecified), the TGI in experiment [1], in experiment [2], in experiment [3], in experiment [4], in [5] and in experiment [6] was more than 100 µM in each case. Moreover, the TGI in experiment [8], in experiment [7] and in experiment [9] was more than 100 µM throughout.
`N#CC(=Nc1ccccc1N(C(=O)c1ccccc1)C(=O)c1ccccc1)c1ccccc1`: the TGI in experiment [1] is more than 44.8 µM; in experiment [2] it was more than 76.2 µM; in [3] it was more than 100 µM; in [4], more than 100 µM; in [5], more than 100 µM; in [6], more than 100 µM. The figures for the TGI in experiment [8], in [7] and in experiment [9] were 24.2 µM, more than 100 µM and more than 81.4 µM, respectively.
`COc1cc(/C=C2\[C@H]3c4c(c(OC)c(C)c(OC)c4OC)CC(C(=O)N2Cc2ccccc2)N3C)c(OC)c(C)c1OC`: the TGI is more than 100 µM in [1]; more than 100 µM in experiment [2]; 47.3 µM in experiment [3]; 67.6 µM in experiment [4]; 92 µM in experiment [5]; 79.2 µM in experiment [6]. Also, the figures for the TGI in [8], in [7] and in [9] were 74.4 µM, 33.4 µM and 61.2 µM, respectively.
On to `CC(C(=O)c1ccc(Cl)cc1)/C(=N/NC(=O)NN)C(=O)Nc1cccc(C(F)(F)F)c1` (stereo unspecified), for which the TGI in [1], in experiment [2], in [3], in experiment [4], in [5] and in experiment [6] was more than 100 µM each time. In addition, the TGI in experiment [7] and in [9] was more than 100 µM each time.
In the case of `CCOC(=O)NC(=O)c1cn(C2CCCCC2)c(=O)[nH]c1=O`, the TGI in [1], in experiment [2], in [3], in experiment [4], in experiment [5] and in experiment [6] was more than 100 µM throughout. Further, the TGI in experiment [7] and in [9] was more than 100 µM in each case.
Regarding `COc1c(C)n(CCO)ccc1=O`, the TGI in experiment [1], in experiment [2], in [3], in experiment [4], in [5] and in experiment [6] was more than 100 µM throughout. Moreover, the TGI in [8], in experiment [7] and in experiment [9] was more than 100 µM throughout.
For the compound `Cc1ccccc1C1=[N+]([O-])c2ccc(Cl)cc2C1=O`, the TGI in experiment [1] is 19.5 µM; in [3], 30.6 µM; in [4] it was 25 µM; in experiment [5], 52.6 µM; in [6] it was 34.5 µM; in [8], 64.2 µM. Further, the results for the TGI in experiment [7] and in experiment [9] were 20.2 µM and 9.37 µM, respectively.
`CCC1CN2CCc3cc(OC)c(OC)cc3C2CC1CC1c2cc(OC)c(OC)cc2CCN1C(=O)C1CCCN1` (stereo unspecified): the TGI in [1] is 55 µM; in experiment [2] it was 87.9 µM; in experiment [3], 37.3 µM; in [4], more than 100 µM; in [5] it was 98.5 µM; in [6] it was more than 100 µM. Also, the TGI is 85.1 µM in [8], 72.4 µM in [7] and more than 100 µM in experiment [9].
Turning to `CCC(C)(O)c1cnc(CC(C)C)c(=O)n1O` (stereo unspecified), the TGI in experiment [1] is more than 100 µM; in experiment [2] it was more than 100 µM; in experiment [4] it was more than 100 µM; in [5], more than 100 µM; in [6], more than 100 µM; in experiment [8], 62.6 µM. In addition, the TGI in experiment [7] is more than 100 µM; in experiment [9], 28.5 µM.
Consider `O=C(CC(=O)C1CCOC1=O)C(=O)Nc1cccc(Cl)c1` (stereo unspecified), for which the TGI in experiment [1], in experiment [2], in experiment [3], in experiment [4], in [5] and in [6] was more than 100 µM in each case. In addition, the TGI in experiment [7] and in experiment [9] was more than 100 µM throughout.
For the compound `CCOC(=O)NC(=O)c1cn(C(CC)COC(=O)NCCCCCCNC(=O)OCC(CC)n2cc(C(=O)NC(=O)OCC)c(=O)[nH]c2=O)c(=O)[nH]c1=O` (stereo unspecified), the TGI in [1], in experiment [2], in experiment [3], in [4], in experiment [5] and in [7] was more than 100 µM each time. Further, in experiment [9], the TGI was more than 100 µM.
Turning to `O=[N+]([O-])c1cccc(C2=NOC(C3CCCCC3)C2)c1` (stereo unspecified), the TGI in [1], in experiment [2], in [3], in experiment [5] and in experiment [6] was more than 100 µM throughout.
For `NC(=O)C(=O)CC(=O)c1ccccc1NC1=CC(=O)C(=O)c2ccccc21`, the TGI was more than 100 µM in experiment [1]; more than 100 µM in experiment [2]; more than 59 µM in experiment [3]; more than 100 µM in experiment [4]; more than 100 µM in experiment [5]; more than 100 µM in [6]. Further, the TGI in experiment [7] was 36.1 µM; in [9], more than 100 µM.
Turning to `Nc1c(-c2ccccc2-c2c(N)[n+]([O-])c3ccccc3[n+]2[O-])[n+]([O-])c2ccccc2[n+]1[O-]`, the TGI in [1] is 74.6 µM; in experiment [2] it was more than 100 µM; in [3], more than 100 µM; in [4], 57.1 µM; in experiment [5] it was more than 100 µM; in experiment [6], more than 100 µM. In addition, the TGI in experiment [8] is 37.3 µM; in experiment [7], more than 100 µM; in experiment [9] it was 63.4 µM.
Take `O=C(N/C(=C\c1ccc([N+](=O)[O-])cc1)c1nc2ccccc2[nH]1)c1ccccc1`: the TGI in experiment [1], in experiment [2], in [3], in experiment [4], in experiment [6] and in experiment [9] was more than 100 µM each time.
Turning to `CC(C)CCC[C@@H](C)C1CCC2[C@@H]3CC=C4C[C@@H](C(=O)NCCN(C)C)CC[C@]4(C)C3CC[C@@]21C` (stereo partly specified), the TGI is more than 100 µM in [2]; more than 100 µM in experiment [3]; more than 100 µM in experiment [4]; more than 100 µM in experiment [5]; 69.8 µM in [6]; more than 100 µM in [7]. In addition, the TGI in experiment [9] stood at 94 µM.
Regarding `Cc1cc2c(c(C(N)=O)c1C)-c1ccccc1C2=O`, the TGI in experiment [1], in [2], in experiment [3], in [4], in experiment [5] and in experiment [6] was more than 100 µM throughout. Further, the TGI in experiment [7] and in experiment [9] was more than 100 µM each time.
As for `CC1=C(C#N)C(=O)CC(c2ccc(Cl)cc2)N(C)N1` (stereo unspecified), the TGI in [1], in [2], in experiment [3], in experiment [5], in [6] and in experiment [8] was more than 100 µM in each case. In addition, the TGI in experiment [7] and in experiment [9] was more than 100 µM in each case.
In the case of `Cn1cc(-c2csc(-c3cn(CCCCN4CCCCC4)c4ccccc34)n2)c2cccnc21`, the GI50 in experiment [2] was 1.96 µM; in experiment [4] it was 1.58 µM; in experiment [5], 1.77 µM; in experiment [6] it was 1.61 µM; in experiment [7], 1.71 µM. Besides, the TGI is 4.04 µM in experiment [2]; 3.03 µM in experiment [4]; 3.21 µM in experiment [5]; 3.05 µM in experiment [6]; 3.21 µM in experiment [7].
Consider `CC(C)=C1CCC(CN(C)C)C1=O` (stereo unspecified), for which the TGI was found to be 30.3 µM in experiment [1]; 28.4 µM in [2]; 30.2 µM in experiment [3]; 31.9 µM in experiment [4]; 31 µM in experiment [6]; 36.5 µM in [8].
Consider `CC(=O)N1CCN(c2ccc(OCC3COC(Cn4ccnc4)(c4ccc(Cl)cc4Cl)O3)cc2)CC1` (stereo unspecified), for which the TGI in [1] is 76.6 µM; in experiment [2], more than 100 µM; in [3], more than 100 µM; in experiment [5], more than 100 µM; in [6], 99.9 µM; in [8] it was 66.5 µM. In addition, the TGI is 36 µM in experiment [7] and more than 100 µM in experiment [9].
`COC(=O)/C([Se]c1c(C)cc(C)cc1C)=C(/[Se]c1c(C)cc(C)cc1C)C(=O)OC`: the TGI in experiment [1], in [2], in experiment [3], in experiment [4], in experiment [5] and in experiment [6] was more than 100 µM in each case. Moreover, the TGI in [8], in experiment [7] and in experiment [9] was more than 100 µM in each case.
Regarding `CCOCN1COCN(C)C1=O`, the TGI in [1], in experiment [2], in [3], in [4], in experiment [5] and in experiment [6] was more than 100 µM in each case. Further, the TGI in experiment [7] and in [9] was more than 100 µM throughout.
As for `Nc1nc(-c2ccc(Cl)c([N+](=O)[O-])c2)cs1`, the TGI in experiment [1], in experiment [2], in [3], in experiment [4], in [5] and in experiment [6] was more than 100 µM throughout. The TGI in [7] and in [9] was more than 100 µM each time.
